This note sets out measurements from patent publication US10907219B2, “Compositions and methods for controlling cellular function” (STC.UNM, priority 2014, dated 2021).

Data set [1] can be described thus: ABA-HP reactivity towards H2O2 (HPLC). To be noted: 1 mM + H2O2 (5 eq), 50% HEPES/DMSO, 37° C. Format: physicochemical. As for the experimental part:
(§1) Chemical stability and reactivity of ABA-HP towards H2O2: ABA-HP chemical stability: 1 mM ABA-HP (in DMSO) was incubated in 50% HEPES/DMSO (10 mM HEPES, pH 7.4) for 24 hours at 37° C. HPLC results were detected at 0 minutes, 20 minutes, 40 minutes, 60 minutes, 80 minutes, 100 minutes, 120 minutes, 240 minutes, and 24 hours. ABA-HP reactivity towards H2O2: 1 mM ABA-HP was incubated with 5 mM (5 eq) H2O2 in 50% HEPES/DMSO (10 mM HEPES, pH 7.4) at 37° C. HPLC results were detected at 0 minutes, 20 minutes, 40 minutes, 80 minutes, 100 minutes, 120 minutes, and 240 minutes (FIGS. 1c, 4a and 4b). 100 mM H2O2 was diluted with 11 μL of 30% (10 M) stock H2O2 (VWR) and 989 μL of ddH2O. […] HPLC chromatograms were acquired using an ULTIMATE 3000 LC System (Thermo Fisher Scientific, Waltham, Mass.) with ACCLAIM 120 Å, C18, 3 μm analytical (4.6×100 mm) column (Thermo Fisher Scientific, Waltham, Mass.). Chromatographic conditions: eluent A: 0.1% v/v TFA in water; eluent B: 0.1% v/v TFA in acetonitrile. ABA in ethanol or ABA-HP in DMSO was eluted at a flow rate of 0.750 ml/min monitored at a wavelength of 260 nm. 0-12 min (linear): 95% A, 5% B to 5% A, 95% B; 12-15 min: 5% A, 95% B; 15-17 min (linear): 5% A, 95% B to 95% A, 5% B. Generation of ABA was quantified by the peak area of ABA out of the total peak area.

Data set [2] can be described thus: Chemical stability of ABA-HP in HEPES/DMSO (HPLC). Format: physicochemical. Particulars: 1 mM, 50% HEPES/DMSO pH 7.4, 37° C., 24 hours. As for the experimental part:
as §1

Data set [3] in a line: Reaction selectivity of ABA-HP versus different molecules (HPLC). Format: physicochemical. Particulars: four hours. As to the method:
Reaction selectivity versus different molecules: 100 μM ABA-HP was incubated with 100 μM (1 eq) of different molecules in 50% HEPES/DMSO (pH 7.4) at 37° C. for 4 hours and detected by HPLC. H2S was generated by 100 μM Na2S solution in HEPES buffer, which can slowly release H2S. .OH and .OtBu were generated by reaction of Fe^2+ with H2O2 or tert-butyl hydroperoxide (TBHP), respectively. HPLC condition was the same as the stability and reactivity test of ABA-HP.

The subject of data set [4] is myr-ABI and EGFP-PYL-Tiam1 in CHO cells. The data set is described as follows: Live cell imaging of cytoskeletal remodeling. To be noted: 405 nm irradiation. Format: cell-based. As for the experimental part:
(§2) To test the uncaging process in live cell experiments, EGFP nuclear export experiments were carried out by transfecting CHO cells with EGFP-PYL and NES-ABI constructs. The cells were then either treated with 10 μM ABA-DEACM and with or without 405 nm light irradiation under a confocal microscope, or with no drug but irradiated. The subcellular location of EGFP was followed for 20 minutes after irradiation. […] We also tested the use of ABA-DEACM in live cell imaging to induce cell morphology changes. We transfected CHO cells in a culture chamber with myr-ABI and EGFP-PYLTiam1 constructs.
Live cell confocal microscopy irradiation and imaging: EGFP fluorescence of CHO cells was detected with an LSM 510 Meta confocal mounted on an AxioObserver inverted microscope (Carl Zeiss AG, Oberkochen, Germany). ABA-DEACM was uncaged by using a 405 nm UV laser (25 mW) set to 25% power for approximately three seconds. To image, fluorescence was excited with the 488 nm line of an argon laser (30 mW) with laser power attenuated to 50%. EGFP emission was collected with a FITC filter. Live cells were plated in 8-well coverslip-bottom culture chambers in medium (200 μL) and maintained at 37° C. with an objective lens heater (Bioptechs Inc., Butler, Pa.). Culture medium was exchanged with OptiMEM (GIBCO, Life Technologies, Carlsbad, Calif.) with caged ABA or no drug prior to imaging. Images were acquired every 10 to 20 seconds in different experiments with a 63×5/1.2 NA water objective.

Data set [5] relates to EGFP-PYL and NES-ABI in CHO cells. The data set is described as follows: Live cell confocal EGFP nuclear export. Format: cell-based. Particulars: 10 μM, 405 nm irradiation, followed 20 minutes. As for the experimental part: as §2
Live cell confocal microscopy irradiation and imaging: EGFP fluorescence of CHO cells was detected with an LSM 510 Meta confocal mounted on an AxioObserver inverted microscope (Carl Zeiss AG, Oberkochen, Germany). […] To image, fluorescence was excited with the 488 nm line of an argon laser (30 mW) with laser power attenuated to 50%. […]
Image analysis of fluorescence intensity in nuclear export experiments: Generated images were analyzed for fluorescence intensity by using Slide Book v.6 software (Intelligent Imaging Innovations, Inc., Denver, Colo.). Equal sized regions of interest were analyzed from the cytoplasm and the nucleus to compare fluorescent intensity of EGFP in three cells for each condition from images taken every 20 seconds for a duration of 20 minutes.

As to `CC1=CC(=O)CC(C)(C)[C@@]1(O)/C=C/C(C)=C\C(=O)OCc1ccc(B2OC(C)(C)C(C)(C)O2)cc1` [ABA-HP], in data set [1], the “completion of transformation to ABA” value was “completed in four hours” and the “start of conversion back to ABA” value was “within minutes”. For the same molecule, in data set [2], the “chemical stability in biological buffer” value was “stable in biological buffer at 37 °C throughout the 24-hour observation period”. In addition, the “stability against other ROS, H2S, metal ions” value in data set [3] (100 μM ABA-HP, molecules at 100 μM, 37° C.) was “stable against all molecules tested at 100 μM”. For the same molecule, in data set [3] (Cu^+ and Cu^2+ at 10 μM), the “effect of Cu^+ and Cu^2+” value is listed as “no effects”. The “cleavage by Cu^+ and Cu^2+” value in data set [3] (Cu^+ and Cu^2+ at 100 μM) was “minimal amount of cleavage”.

On to `CCN(CC)c1ccc2c(COC(=O)/C=C(C)\C=C\[C@@]3(O)C(C)=CC(=O)CC3(C)C)cc(=O)oc2c1` [ABA-DEACM], for which, in data set [4], the “start of membrane ruffling after uncaging” value is 5 min; the “time to formation of fillopodia and lemellopodia” value was no more than 15 min; the “time to formation of filopodia and lamellipodia” value was no more than 15 min. For the same molecule, the “nuclear export of EGFP fusion proteins” value in data set [5] is “observed within a few minutes”.
